Experimental data published in paper PMC9619402 (Journal of Medicinal Chemistry, 2022).
In brackets after ≈: the same amount, converted by molar mass. Read-outs that look alike come from different tables or passages of the source. Marks after values point to notes of the source that are not given here.

Experiments:
[1] = system: 468 kinases (scanMax panel); assay: Eurofins/DiscoverX scanMax panel (KINOMEscan) kinome profile; assay type: binding; conditions: fraction of kinases bound >50%
[2] = system: p-cofilin levels in SH-SY5Y cells; assay: cells; conditions: Homo sapiens, 2 h, read-out: AlphaLISA pIC50 p-cofilin (converted)
Method: SH-SY5Y cells were plated into a 96-well plate at 20,000 cells/well. The next day, compounds were prepared in an 8-point, 3-fold serial dilution in DMSO and then further diluted to 20-fold in DMEM/F12 with 10% FBS, 1% antibiotics. SH-SY5Y cell media was replaced with fresh DMEM/F12 media containing 10% FBS and 1% antibiotics. Compounds were added to the SH-SY5Y cells in duplicate at a final compound concentration of 10 μM to 3 nM. LIMKi3 (10 μM) was used as a positive control and 0.5% DMSO was used as a negative control. Cells were placed in the incubator for 2 h, after which the media was removed, and the cells were lysed using 50 μL of AlphaLISA 1× lysis buffer (Perkin Elmer) containing protease inhibitor cocktail (Sigma-Aldrich, Dorset, U.K.) and Pierce phosphatase inhibitor cocktail (Thermofisher, U.K.). Cells were placed on a plate shaker at 350 rpm at RT. Ten microliters of total cell lysate was then transferred to a clean, flat-bottom, white 384-well plate. An acceptor bead solution was made consisting of reaction buffer 1, reaction buffer 2, activation buffer, and acceptor beads from the p-Cofilin SureFire Ultra assay kit (Perkin Elmer, Cat# ALSU-PCOF-A500). To each well in the assay, 5 μL of the acceptor mix was added to the wells under dim light; the plate was placed on a plate shaker for 2 min at 450 rpm, centrifuged briefly, and the plate was incubated at RT for 1 h. A donor solution, consisting of dilution buffer and donor beads, was added at 5 μL/well, mixed on a plate shaker, centrifuged briefly, and incubated at RT for 1 h. Finally, the plate was read on a Pherastar reader (BMG Labtech Ltd., Aylesbury, U.K.) using an AlphaLISA cartridge and AlphaLISA plate settings.

[3] = target: LIMK2 (LIMK2_347–659, kinase catalytic domain) (Homo sapiens, UniProt P53671); assay type: biochemical
Sequence of LIMK2 (LIMK2_347–659, kinase catalytic domain) (P53671 326-638 limits assumed): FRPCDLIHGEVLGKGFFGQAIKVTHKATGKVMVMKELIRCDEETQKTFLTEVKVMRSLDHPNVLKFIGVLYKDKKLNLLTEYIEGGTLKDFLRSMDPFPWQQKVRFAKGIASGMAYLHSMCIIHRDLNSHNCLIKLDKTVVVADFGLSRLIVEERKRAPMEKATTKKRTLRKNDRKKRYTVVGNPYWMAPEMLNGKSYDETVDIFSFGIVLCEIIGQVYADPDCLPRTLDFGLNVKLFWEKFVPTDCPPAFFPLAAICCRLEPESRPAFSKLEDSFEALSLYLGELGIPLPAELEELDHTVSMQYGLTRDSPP

[4] = target: PAK pLIMK2 (PAK-phosphorylated LIMK2) (Homo sapiens, UniProt P53671); assay type: biochemical; conditions: 6 nM LIMK2 + 0.2 nM PAK1 kinase domain; mean ± SEM
Sequence of PAK pLIMK2 (PAK-phosphorylated LIMK2) (P53671 326-638 limits assumed): as above

[5] = target: T1, LIMK2 (NanoLuc LIMK2 kinase fusion) (Homo sapiens, UniProt P53671); assay type: cell-based; conditions: HEK293 cells, 2 h; mean ± SEM
T1 construct: host or cells: HEK293
T1 sequence (P53671 whole entry, the tested form may be a part): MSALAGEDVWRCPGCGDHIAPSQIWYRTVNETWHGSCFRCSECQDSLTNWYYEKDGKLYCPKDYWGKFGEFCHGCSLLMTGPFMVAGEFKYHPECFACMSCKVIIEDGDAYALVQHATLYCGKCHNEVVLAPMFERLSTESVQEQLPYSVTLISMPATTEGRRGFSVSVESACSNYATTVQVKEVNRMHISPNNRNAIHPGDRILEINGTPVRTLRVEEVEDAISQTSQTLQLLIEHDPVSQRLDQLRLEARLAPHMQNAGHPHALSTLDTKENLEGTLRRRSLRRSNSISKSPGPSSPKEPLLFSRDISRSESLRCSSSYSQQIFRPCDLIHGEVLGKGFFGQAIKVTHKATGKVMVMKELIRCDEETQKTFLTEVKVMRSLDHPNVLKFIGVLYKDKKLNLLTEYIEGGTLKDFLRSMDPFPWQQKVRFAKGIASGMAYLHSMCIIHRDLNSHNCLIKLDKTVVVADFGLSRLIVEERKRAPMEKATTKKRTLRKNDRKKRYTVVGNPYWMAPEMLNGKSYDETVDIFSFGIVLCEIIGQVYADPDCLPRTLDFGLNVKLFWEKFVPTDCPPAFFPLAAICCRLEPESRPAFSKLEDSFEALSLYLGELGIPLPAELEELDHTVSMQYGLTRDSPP
Method: (§1) HEK293 cells were resuspended in growth media following routine trypsinization, neutralization, and sedimentation techniques. Cell density was adjusted to 1 ×10^5 cells/mL for each transfection in a total of 25 mL media. The transfection mix was added directly to the cells and mixed gently by inversion. The cells were then plated into T-75 tissue culture flasks and incubated for 20 h.
(§2) Kit components were purchased from Promega (Hampshire, U.K.). […] NanoBRET Tracer #10 (27.5 μL) was diluted in 192.5 μL of DMSO for use as a positive control, which was further diluted with 880 μL of tracer dilution buffer. For negative control, 20 μL of DMSO was added to 80 μL of tracer dilution buffer. LIMK1/2-transfected HEK293 cells were trypsinized, centrifuged, and resuspended in 10 mL of Opti-MEM. Extracellular NanoLuc inhibitor was added at 1:10,000 dilution to the cells, after which 85 μL of cells/well were plated into flat-bottomed, white, 96-well plates. For positive control wells, 5 μL of NanoBRET Tracer #10 was added to wells without compound. For negative controls, the DMSO/tracer dilution buffer solution was added to wells without compound. For test compounds, 10 μL of diluted compounds from the intermediate plate were added in duplicate or DMSO (for control wells) at a final concentration of 0.5% DMSO in Opti-MEM. Plates were incubated at 37 °C and 5% CO2 for 2 h. […] A solution of Nano-Glo substrate was made consisting of 72 μL of Nano-Glo substrate and 11.93 mL of Opti-MEM (without phenol red) and mixed gently by inversion 5–10 times.

[6] = target: T2, LIMK1 (NanoLuc LIMK1 kinase fusion) (Homo sapiens, UniProt P53667); assay type: cell-based; conditions: HEK293 cells, 2 h; mean ± SEM
T2 construct: host or cells: HEK293
T2 sequence (P53667 whole entry, the tested form may be a part): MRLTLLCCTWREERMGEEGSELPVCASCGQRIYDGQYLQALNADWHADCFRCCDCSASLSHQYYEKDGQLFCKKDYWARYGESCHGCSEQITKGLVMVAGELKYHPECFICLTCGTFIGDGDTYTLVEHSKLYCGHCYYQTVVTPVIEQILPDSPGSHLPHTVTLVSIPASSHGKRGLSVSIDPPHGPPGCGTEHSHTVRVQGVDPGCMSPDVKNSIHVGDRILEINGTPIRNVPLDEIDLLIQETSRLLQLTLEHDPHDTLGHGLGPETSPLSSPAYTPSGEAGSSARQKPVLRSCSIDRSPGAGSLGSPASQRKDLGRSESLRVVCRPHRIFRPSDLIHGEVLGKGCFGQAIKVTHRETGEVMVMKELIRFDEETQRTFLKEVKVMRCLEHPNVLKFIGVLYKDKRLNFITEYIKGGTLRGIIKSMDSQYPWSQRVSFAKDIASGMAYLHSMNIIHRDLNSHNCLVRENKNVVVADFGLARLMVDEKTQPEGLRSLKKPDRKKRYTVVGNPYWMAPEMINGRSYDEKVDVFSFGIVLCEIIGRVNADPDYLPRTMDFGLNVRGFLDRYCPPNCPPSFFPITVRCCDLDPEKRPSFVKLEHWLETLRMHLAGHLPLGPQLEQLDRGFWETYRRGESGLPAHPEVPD
Method: as §1, §2

[7] = target: PAK pLIMK1 (PAK-phosphorylated LIMK1) (Homo sapiens, UniProt P53667); assay: RapidFire mass spectrometry kinase assay, PAK-phosphorylated LIMK1; conditions: 5 nM LIMK1 + 0.4 nM PAK1 kinase domain; mean ± SEM
Sequence of PAK pLIMK1 (PAK-phosphorylated LIMK1) (P53667 330-637): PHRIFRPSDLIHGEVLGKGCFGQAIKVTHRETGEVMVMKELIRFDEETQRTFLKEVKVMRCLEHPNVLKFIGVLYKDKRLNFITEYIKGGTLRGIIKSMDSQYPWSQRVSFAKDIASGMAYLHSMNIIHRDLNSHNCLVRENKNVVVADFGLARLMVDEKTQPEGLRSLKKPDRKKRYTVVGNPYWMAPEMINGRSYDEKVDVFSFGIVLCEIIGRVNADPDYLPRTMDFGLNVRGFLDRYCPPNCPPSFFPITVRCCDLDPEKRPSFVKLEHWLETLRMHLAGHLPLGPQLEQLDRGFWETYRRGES

[8] = target: LIMK1 (LIMK1_330–637, kinase catalytic domain) (Homo sapiens, UniProt P53667); conditions: for preference between LIMK1 and LIMK2: RapidFire, LIMK1 versus LIMK2, at best
Sequence of LIMK1 (LIMK1_330–637, kinase catalytic domain) (P53667 330-637): as above

[9] = Caco-2 permeability; assay type: in vitro ADME; conditions: for efflux ratio: Caco-2, Table S1
[10] = In vivo DMPK, IV dosing; conditions: male, Sprague-Dawley, rat
Method: In vivo studies were carried out under appropriate licenses at Pharmidex (U.K.), Sygnature Discovery (U.K.), or Sai Life (India) using male Sprague-Dawley rats. […] Serial plasma samples were obtained at predetermined time points and then stored at −20 °C. Samples were then thawed, protein-precipitated with acetonitrile followed by LCMS/MS quantification.

[11] = Microsomal stability, human microsomes; conditions: pH 7.4
Method: (§3) After mixing thoroughly, the T = 0 sample (40 μL) was immediately quenched into an 80 μL ice-cold methanol containing a 4 μM internal standard (carbamazepine). Three further samples were quenched in the same way at T = 3, 9, and 30 min. Samples were incubated on ice for 30 min before centrifugation at 4700 rpm for 20 min. The supernatant was analyzed via LCMS/MS, and compound/carbamazepine peak area ratios were calculated to determine the rate of substrate depletion.

[12] = Microsomal stability, rat microsomes; conditions: pH 7.4
Method: as §3

[13] = Thermodynamic solubility; assay type: physicochemical; conditions: pH 7, PBS, 24 h room temperature; average of two experiments; read-out: aq. solubility
Method: The samples were then centrifuged at >10,000 rpm for 10 min to pellet any remaining solid. […] To prepare the standard, an 8-point, 1:3 dilution curve was prepared in DMSO with a top concentration of 1 mM, which was then diluted to 1:100 in acetonitrile containing 2 μM of carbamazepine. Standards and samples were analyzed via LCMS/MS. The compound carbamazepine peak area ratios were calculated, and the test article solubility was determined by interpolation from the standard curve.

[14] = 15 nM LIMK2 catalytic domain, 4 μM CFL1, 2 mM ATP, mean ± SEM, pIC50 greater than 8.1 treat with caution
[15] = 40 nM LIMK1 catalytic domain, 4 μM CFL1, 2 mM ATP, mean ± SEM, at least three experiments unless footnoted, pIC50 greater than 7.7 treat with caution

SMILES | IC50 [2] | RapidFire pIC50 LIMK2 [3, 14] | RapidFire pIC50 PAK pLIMK2 [4] | NanoBRET pIC50 LIMK2 [5] | NanoBRET pIC50 LIMK1 [6] | RapidFire pIC50 PAK pLIMK1 [7] | RapidFire pIC50 LIMK1 [8, 15] | also measured
CCn1c(=O)c(-c2ccc(Cl)cc2Cl)cc2cnc(Nc3ccc(N4CCNCC4)c(F)c3)nc21 [Compound 1] | – | – | – | – | – | – | – | kinome S50 ([1]; 1000 nM): 0.54 (468, 1000 nM)
O=C(Nc1ncc(-c2cc(C(F)F)nn2-c2c(Cl)cccc2Cl)s1)C1CC1 [Compound 2] | 0.0398 µM | 7.52 ± 0.04 | 6.56 ± 0.06 | 7.79 ± 0.02 | 7.09 ± 0.08 | 7.00 ± 0.03 | 7.75 ± 0.04 | –
CCNC(=O)Nc1ncc(-c2cc(-c3c(C)cc(OC)cc3C)nc(-c3cnccn3)n2)s1 [Compound 3] | 0.457 µM | 6.87 ± 0.10 | 6.15 ± 0.04 | 6.33 ± 0.12 | 6.45 ± 0.14 | 5.64 ± 0.06 | 7.25 ± 0.06 | –
CC(C)C(=O)Nc1ncc(-c2cc(C(F)F)nn2-c2c(Cl)cccc2Cl)s1 [Compound 4] | – | – | – | – | – | – | – | Papp A→B ([9]; human, Caco-2, A – B): 88 nm/s; Papp B→A ([9]; human, Caco-2, B – A): 124 nm/s; Vd [10]: 2 L/kg; half-life ([10]; 0.2 mg/kg): 1.1 h
Cc1c[nH]c2ncnc(N3CCN(C(=O)Nc4cccc(OC(=O)N(C)C)c4)[C@@H](C)C3)c12 [Compound 6] | 0.00302 µM | – | 7.68 ± 0.07 | 8.61 ± 0.04 | 8.28 ± 0.08 | 7.68 ± 0.04 | – | RapidFire pIC50 LIMK2 [3]: 8.74 ± 0.12; RapidFire pIC50 LIMK1 [8]: 8.70 ± 0.07
Cc1c[nH]c2ncnc(N3CCC(CN)(C(=O)Nc4cccc(OC(=O)N(C)C)c4)CC3)c12 [Compound 7] | – | – | 6.51 ± 0.04 | 8.17 ^d | – | – | – | kinome S50 ([1]; 300 nM): 0.13 (468, 300 nM); Vd [10]: 6.4 L/kg; clearance [10]: 5.89 L/h/kg; half-life ([10]; 0.5 mg/kg): 1.3 h; microsomal CLint at 0.5 h, 4 µM [11]: 3 µL/min/mg; microsomal CLint at 0.5 h, 4 µM [12]: 50 µL/min/mg; solubility at 24 h [13]: 451 µM (≈ 204 µg/mL)
Cc1c[nH]c2ncnc(-c3ccc(NC(=O)N(CCO)c4ccccc4)cc3)c12 [Compound 8] | – | – | – | – | – | – | – | clearance [10]: 0.252 L/h/kg; half-life [10]: 2.2 h; Vd ([10]; 1 mg/kg): 0.5 L/kg; microsomal CLint at 0.5 h, 4 µM [11]: 8 µL/min/mg; microsomal CLint at 0.5 h, 4 µM [12]: 18 µL/min/mg; solubility at 24 h [13]: 28 µM (≈ 10.8 µg/mL)
CCc1cccc(CC)c1NC(=O)N1Cc2n[nH]c(NC(=O)c3ccc(N4CCN(C)CC4)cc3)c2C1 [Compound 11] | > 10 µM | 5.10 ± 0.04 | <5 | <5 | <5 | 6.24 ± 0.04 | 6.39 ± 0.03 | efflux ratio [9]: high efflux; efflux ratio ([9]; human, read-out: Efflux ratio): 279; preference between LIMK1 and LIMK2 [8]: ~10 fold
Cc1cc(Nc2nc(N[C@@H](C)c3ccc(F)cc3)c(C#N)cc2F)n[nH]1 [Compound 12] | > 10 µM | – | 5.18 ± 0.03 | <5 | <5 | 6.52 ± 0.01 | – | RapidFire pIC50 LIMK2 [3]: 5.71 ± 0.14; efflux ratio ([9]; human, read-out: Efflux ratio): 1.01; RapidFire pIC50 LIMK1 [8]: 6.82 ± 0.06; preference between LIMK1 and LIMK2 [8]: ~10 fold
Cc1cc(Nc2cc(CN3CCOCC3)c3nc(C)c(Cc4ccc(Cl)cc4F)n3n2)n[nH]1 [Compound 13, gandotinib] | > 10 µM | <5 | 5.22 ± 0.05 | <5 | <5 | 5.98 ± 0.06 | 6.40 ± 0.03 | efflux ratio [9]: high efflux; efflux ratio ([9]; human, read-out: Efflux ratio): 10.2; preference between LIMK1 and LIMK2 [8]: ~10 fold
Cn1cc(-c2[nH]c3cc(NC(=O)[C@H](N)C4CCCCC4)cc4c3c2C=NNC4=O)cn1 [Compound 16] | > 10 µM | <5 | 5.47 ± 0.04 | 6.56 ± 0.02 | 6.40 ± 0.04 | 6.76 ± 0.12 | 6.09 ± 0.07 | –
CN1C(=O)[C@@H](N2CCc3c(nn(Cc4ccccc4)c3C(N)=O)C2=O)COc2cc(Cl)ccc21 [Compound 17] | – | – | – | – | – | – | – | kinome S50 ([1]; 1000 nM): 0.01 (468, 1,000 nM)
